The values below come from patent US5563268A, “Heterobiaryl derivatives” (Dr. Karl Thomae GmbH, priority 1991, dated 1996).

SMILES strings stand for the structures. Where a name gives a salt, the structure may show the parent alone.

Data set [1] deals with human thrombocytes. The data set can be described thus: Fibrinogen binding to human thrombocytes (125I-fibrinogen, gel-filtered platelets). Particulars: inhibition of 125I-fibrinogen binding by 50%, 20 minutes at ambient temperature, read-out: Fibrinogen binding test ID50. As for the experimental part: (§1) 1. Fibrinogen binding to human thrombocytes Blood obtained by puncture of an antecubital vein is anticoagulated with trisodium citrate (final concentration: 13 mM) and centrifuged for 10 minutes at 170 *g. The supernatant platelet-rich plasma is placed on a Sepharose 2B column (Pharmacia) and eluted with a solution of 90 mM common salt, 14 mM trisodium citrate, 5 mM glucose and 50 mM tris(hydroxymethyl)aminomethane, adjusted to pH 7.4. The gel-filtered platelets (GFP) appearing in front of the plasma proteins are used for the binding tests. 50 μl of a 60 mM calcium chloride solution, 50 μl of a 0.6 mM adenosine diphosphate solution, 100 μl of substance solution or solvent and 50 μl of fibrinogen solution (containing 3 μg ^125 I-fibrinogen) are added to 750 μl of GFP and incubated for 20 minutes at ambient temperature. The non-specific binding is measured in the presence of 3 mg/ml of cold fibrinogen. 900 μl of the incubate are carefully pipetted onto 250 μl of silicon oil (AP 38: AR 20, 1:2 v/v, Wacker Chemie) in Eppendorf vessels and centrifuged for 2 minutes at 10,000 *g. The aqueous supernatant and some of the oil are removed, the tip of the vessel with the platelet pellet is cut off and the quantity of bound fibrinogen is measured in a gamma-counter. The concentration of substance which inhibits fibrinogen binding by 50% is calculated from a series of concentrations and given as the IC50.

The next data set has as its system thrombocyte aggregation. The data set can be described thus: Antithrombotic activity: inhibition of collagen-induced platelet aggregation (Born and Cross) in platelet-rich plasma. Particulars: 10 min, human platelet-rich plasma, 10 minutes incubation at 37° C. Type of data set: cell-based, healthy volunteers (human). The protocol:
Method The thrombocyte aggregation is measured using the Born and Cross method (J. Physiol. 170: 397 (1964)) in platelet-rich plasma taken from healthy volunteers. To inhibit coagulation the blood is mixed with 3.14% sodium citrate in a ratio by volume of 1:10. Collagen-induced aggregation The pattern of the decrease in optical density of the platelet suspension is photometrically measured and recorded after the addition of the aggregation-triggering substance. The rate of aggregation is concluded from the angle of inclination of the density curve. The point on the curve where there is maximum light transmittance is used to calculate the optical density. The amount of collagen used is as small as possible but sufficient to produce an irreversible reaction curve. Standard commercial collagen produced by Hormonchemie of Munich is used. Before the addition of the collagen the plasma is incubated for 10 minutes with the substance at 37° C. From the measurements obtained an EC50 is determined graphically, indicating a 50% change in the optical density in terms of the inhibition of aggregation.

A further data set has as its system mice. As to the kind of experiment: Tolerability after intravenous administration to mice. The format is in vivo. The following applies: intravenous administration of 30 mg/kg to three mice.
For data set [2], the target named is human thrombocytes. As to the kind of experiment: Fibrinogen binding test on human thrombocytes with 125I-fibrinogen replaced by a 3H-labelled ligand (footnote *). Particulars: * 125I fibrinogen replaced by 3H-labelled (3S,5S)-5-[(4amidino-4-biphenylyl)-oxymethyl... pyrrolidon ligand; 20 min; read-out: Fibrinogen binding test ID50. As for the experimental part: as §1, with “The gel-filtered platelets (GFP) appearing in front of the plasma proteins are used for the binding tests. 50 μl of a 60 mM calcium chloride solution, 50 μl of a 0.6 mM adenosine diphosphate solution, 100 μl of substance solution or solvent and 50 μl of fibrinogen solution (containing 3 μg ^125 I-fibrinogen) are added to 750 μl of GFP and incubated for 20 minutes at ambient temperature.” left out, “IC50. | *^125 I fibrinogen was replaced by [^3 […]” for “IC50.”

Data set [3] relates to human thrombocytes. As to the kind of experiment: Antiaggregatory activity ex vivo after oral administration to rats, rat plasma in the presence of human thrombocytes. On the set-up: species or system rat (treated animals. The following applies: 10 mg/kg oral, two hours after administration, rat plasma with human thrombocytes.

For `N=C(N)c1ccc(-c2cc(C(=O)NCCCCC(=O)O)c(=O)[nH]n2)cc1` [1(3), 6-(4-amidinophenyl)-4-[(4-carboxybutyl)-aminocarbonyl]-2H-pyridazin-3-one], the IC50 with human thrombocytes [1] amounted to 200 nM. The response in the data set with thrombocyte aggregation was half-maximal at 390 nM (EC50).

In the case of `Cn1nc(-c2ccc(C(=N)N)cc2)cc(C(=O)N[C@H]2CC[C@H](C(=O)O)CC2)c1=O` [1(4), 6-(4-amidinophenyl)-4-[(trans-4-carboxycyclohexyl)-aminocarbonyl]-2-methyl-(2H)-pyridazin-3-one], in the data set on mice, the deaths entry is listed as “did not cause any deaths”. Besides, the IC50 in the data set with human thrombocytes [1] was 37 nM. Further, the EC50 (as a rule, the midpoint of the concentration-response curve) in the data set on thrombocyte aggregation is 540 nM.

With `N=C(N)c1ccc(-c2ccc(Nc3ccc(CCC(=O)O)cc3)nn2)cc1` [1(7), 6-(4-amidinophenyl)-3-[4-(2-carboxyethyl)-phenylamino]-pyridazine], the IC50 in the data set on human thrombocytes [1] is 4400 nM. The molecule also displayed an EC50 in the data set with thrombocyte aggregation of 12000 nM.

In the case of `N=C(N)c1ccc(-c2ccc(Oc3ccc(CCC(=O)O)cc3)nn2)cc1` [1(8), 6-(4-amidinophenyl)-3-[4-(2-carboxyethyl)-phenyloxy]-pyridazine], the IC50 in the data set with human thrombocytes [1] was determined as 1700 nM. The EC50 with thrombocyte aggregation stood at 39000 nM.

For the molecule `N=C(N)c1ccc(-c2ccc(N[C@H]3CC[C@H](C(=O)O)CC3)nn2)cc1` [1(11), 6-(4-amidinophenyl)-3-[(trans-4-carboxycyclohexyl)-amino]-pyridazine], the IC50 in the data set with human thrombocytes [1] was found to be 580 nM. In the data set on thrombocyte aggregation, this molecule returned an EC50 of 1200 nM.

For the molecule `COc1nc(-c2ccc(C(=N)N)cc2)ncc1C(=O)N1CCC(CC(=O)O)CC1` [1(14), 2-(4-amidinophenyl)-5-[4-(carboxymethyl)-piperidinocarbonyl]-4-methoxy-pyrimidine], in the data set on human thrombocytes [1], the IC50 was determined as 33 nM. Further, the EC50 in the data set on thrombocyte aggregation is 100 nM.

Regarding `Cn1nc(-c2ccc(C(=N)N)cc2)cc(C(=O)N(C)[C@H]2CC[C@H](C(=O)O)CC2)c1=O` [1(16), 6-(4-amidinophenyl)-4-[N-(trans-4-carboxycyclohexyl)-N-methyl-aminocarbonyl]-2-methyl-(2H)-pyridazin-3-one], in the data set with mice, the deaths result is recorded as “did not cause any deaths”. Besides, the IC50 with human thrombocytes [1] came to 55 nM. For the same molecule, a half-maximal effect in the data set on thrombocyte aggregation (EC50) was put at 160 nM.

For the molecule `N=C(N)c1ccc(-c2cc(C(=O)N[C@H]3CC[C@H](C(=O)O)CC3)c(=O)n(Cc3ccccc3)n2)cc1` [1(18), 6-(4-amidinophenyl)-2-benzyl-4-[(trans-4-carboxycyclohexyl)-aminocarbonyl]-(2H)-pyridazin-3-one], the IC50 at human thrombocytes [2] worked out at 33 nM. The same molecule had an EC50 with thrombocyte aggregation of 310 nM.

Consider `N=C(N)c1ccc(-c2cc(C(=O)N[C@H]3CC[C@H](C(=O)O)CC3)cnn2)cc1` [1(20), 3-(4-amidinophenyl)-5-[(trans-4-carboxycyclohexyl)-aminocarbonyl]-pyridazine], for which the deaths result in the data set on mice was “did not cause any deaths”. Moreover, in the data set with human thrombocytes [1], the IC50 turned out to be 57 nM. In the data set on thrombocyte aggregation, this molecule yielded an EC50 of 290 nM.

Take `COc1nnc(-c2ccc(C(=N)N)cc2)cc1C(=O)N[C@H]1CC[C@H](C(=O)O)CC1` [1(21), 6-(4-amidinophenyl)-4-[(trans-4-carboxycyclohexyl)-aminocarbonyl]-3-methoxy-pyridazine]: the IC50 with human thrombocytes [1] stood at 62 nM. The same molecule gave an EC50 in the data set on thrombocyte aggregation of 320 nM.

In the case of `N=C(N)c1ccc(-c2cc(C(=O)N[C@H]3CC[C@H](C(=O)O)CC3)c(=O)n(CC(=O)N3CCOCC3)n2)cc1` [1(30), 6-(4-amidinophenyl)-4-[(trans-4-carboxycyclohexyl)-aminocarbonyl]-2-[(morpholinocarbonyl)-methyl]-(2H)-pyridazin-3-one-hydrochloride], the IC50 on human thrombocytes [2] amounted to 33 nM. The molecule also returned an EC50 with thrombocyte aggregation of 100 nM.

On to `COC(=O)CCCCNC(=O)c1cc(-c2ccc(C(=N)N)cc2)nn(C)c1=O` [2(1), 6-(4-amidinophenyl)-4-[[4-(methoxycarbonyl)-butyl]-aminocarbonyl]-2-methyl-(2H)-pyridazin-3-one], for which the IC50 in the data set on human thrombocytes [1] is 3200 nM. Moreover, in the data set with thrombocyte aggregation, a half-maximal response (EC50) required 1900 nM.

Take `COC(=O)CC1CCN(C(=O)c2cnc(-c3ccc(C(=N)N)cc3)nc2OC)CC1` [2(15), 2-(4-amidinophenyl)-4-methoxy-5-[4-[(methoxycarbonyl)-methyl]-piperidinocarbonyl]-pyrimidine-hydrochloride]: in the data set on human thrombocytes [1], the IC50 is 52000 nM. In addition, in the data set on thrombocyte aggregation, the EC50 was 5200 nM.

For the molecule `COC(=O)[C@H]1CC[C@H](N(C)C(=O)c2cc(-c3ccc(C(=N)N)cc3)nn(C)c2=O)CC1` [2(17), 6-(4-amidinophenyl)-4-[N-[trans-4-(methoxycarbonyl)-cyclohexyl]-N-methyl-aminocarbonyl]-2-methyl-(2H)-pyridazin-3-one-hydrochloride], the IC50 with human thrombocytes [1] turned out to be 2300 nM. In addition, it took 1300 nM to reach a half-maximal effect with thrombocyte aggregation (EC50).

Consider `Cn1nc(-c2ccc(C(=N)N)cc2)cc(C(=O)NCCCCC(=O)O)c1=O` [Example 1, 6-(4-Amidinophenyl)-4-[(4-carboxybutyl)-aminocarbonyl]-2-methyl-(2H)-pyridazin-3-one], for which the deaths entry with mice is “did not cause any deaths”. The IC50 in the data set on human thrombocytes [1] worked out at 130 nM. The molecule further came in with an EC50 with thrombocyte aggregation of 420 nM.

Regarding `COC(=O)[C@H]1CC[C@H](NC(=O)c2cc(-c3ccc(C(=N)N)cc3)nn(C)c2=O)CC1` [Example 2, 6-(4-Amidinophenyl)-4-[[trans-4-(methoxycarbonyl)-cyclohexyl]-aminocarbonyl]-2-methyl-(2H)-pyridazin-3-one], the IC50 with human thrombocytes [1] came out at 1900 nM. For the same molecule, it took 360 nM to reach a half-maximal effect in the data set with thrombocyte aggregation (EC50).

With `COC(=O)NC(=N)c1ccc(-c2cc(C(=O)N[C@H]3CC[C@H](C(=O)OC)CC3)c(=O)n(C)n2)cc1` [Example 3, 6-[4-[N-(Methoxycarbonyl)-amidino]-phenyl]-4-[[trans-4-(methoxycarbonyl)-cyclohexyl]-aminocarbonyl]-2-methyl-(2H)-pyridazin-3-one], in the data set with mice, the deaths result is on record as “did not cause any deaths”. Besides, in the data set on human thrombocytes [3], the antiaggregatory activity entry was “showed an antiaggregatory activity”. The IC50 in the data set on human thrombocytes [1] stood at 2200 nM. For the same molecule, in the data set with thrombocyte aggregation, the EC50 was above 300000 nM.

`Cl.Cn1nc(-c2ccc(CN)cc2)cc(C(=O)N[C@H]2CC[C@H](C(=O)O)CC2)c1=O` [Example 4, 6-[4-(Aminomethyl)-phenyl]-4-[(trans-4-carboxy-cyclohexyl)-aminocarbonyl]-2-methyl-(2H)-pyridazin-3-one-hydrochloride]: the deaths result in the data set on mice is listed as “did not cause any deaths”. In addition, in the data set on human thrombocytes [1], the IC50 came out at 370 nM. In the data set on thrombocyte aggregation, the EC50 turned out to be 790 nM.

On to `COC(=O)[C@H]1CC[C@H](NC(=O)c2cc(-c3ccc(CN)cc3)nn(C)c2=O)CC1` [Example 5, 6-[4-(Aminomethyl)-phenyl]-4-[[trans-4-(methoxycarbonyl)-cyclohexyl]-aminocarbonyl]-2-methyl-(2H)-pyridazin-3-one-hydrochloride], for which, in the data set on human thrombocytes [1], the IC50 came to 6200 nM. Also, in the data set on thrombocyte aggregation, a half-maximal response (EC50) required 3000 nM.
